US6284269A, “Pharmaceutical compositions of meloxicam with improved solubility and bioavailability” (Hexal AG, priority 1997, dated 2001)
Where “and” joins values, the source holds several entries; their conditions need not be identical. Identical values can stand only once.

Tests used:
[1] = In vitro dissolution of cyclodextrin based meloxicam compositions under non-sink conditions (standard method); type: physicochemical
Protocol: The following standard method was used for the determination of the solution rate of the drug compositions: In vitro dissolution properties of the cyclodextrin based meloxicam compositions were studied under non-sink conditions in two different buffer systems, pH 1.3 and 7.6, respectively and in deionised water (pH=6.6) at 37° C.
(§1) The stirring rate was 160 r.p.m. […] Sampling time intervals were 5, 10, 15, 30, 45 and 60 minutes.

[2] = In vitro rate of dissolution of meloxicam composition at pH 1.2 (table 9); type: physicochemical; settings: 37° C., 60 min
Protocol: The following standard method was used for the determination of the solution rate of the drug compositions: In vitro dissolution properties of the cyclodextrin based […], respectively and in deionised water (pH=6.6) at 37° C.
as §1

Cc1cnc(NC(=O)C2=C(O)c3ccccc3S(=O)(=O)N2C)s1 [free meloxicam, meloxicam]
Dissolved meloxicam in solution ([1]; deionised water (pH = 6.6), 37° C., 5 min): 23 µg/mL | Dissolved meloxicam in solution ([1]; deionised water (pH = 6.6), 37° C., 10 min): 148 µg/mL | Dissolved meloxicam in solution ([1]; deionised water (pH = 6.6), 37° C., 15 min): 232 µg/mL | Dissolved meloxicam in solution ([1]; deionised water (pH = 6.6), 37° C., 30 min): 390 µg/mL | Dissolved meloxicam in solution ([1]; deionised water (pH = 6.6), 37° C., 45 min): 415 µg/mL | Dissolved meloxicam in solution ([1]; deionised water (pH = 6.6), 37° C., 60 min): 475 µg/mL | Dissolved meloxicam in solution ([1]; pH 1.3, 37° C., 5 min (tables 4, 11, 13)): 0.4 µg/mL and 0.30 µg/mL | Dissolved meloxicam in solution ([1]; pH 1.3, 37° C., 5 min, free meloxicam 130 mg, composition 1300 mg (table 7)): 0.45 µg/mL | Dissolved meloxicam in solution ([1]; pH 1.3, 37° C., 5 min, free meloxicam 130 mg, composition 1500 mg (tables 5, 6)): 0.45 µg/mL | Dissolved meloxicam in solution ([1]; pH 1.3, 37° C., 10 min (tables 4, 11, 13)): 0.6 µg/mL and 0.38 µg/mL | Dissolved meloxicam in solution ([1]; pH 1.3, 37° C., 10 min, free meloxicam 130 mg, composition 1300 mg (table 7)): 0.62 µg/mL | Dissolved meloxicam in solution ([1]; pH 1.3, 37° C., 10 min, free meloxicam 130 mg, composition 1500 mg (tables 5, 6)): 0.62 µg/mL | Dissolved meloxicam in solution ([1]; pH 1.3, 37° C., 15 min (tables 4, 11, 13)): 0.7 µg/mL and 0.44 µg/mL | Dissolved meloxicam in solution ([1]; pH 1.3, 37° C., 15 min, free meloxicam 130 mg, composition 1300 mg (table 7)): 0.67 µg/mL | Dissolved meloxicam in solution ([1]; pH 1.3, 37° C., 15 min, free meloxicam 130 mg, composition 1500 mg (tables 5, 6)): 0.67 µg/mL | Dissolved meloxicam in solution ([1]; pH 1.3, 37° C., 30 min (tables 4, 11, 13)): 0.7 µg/mL and 0.56 µg/mL | Dissolved meloxicam in solution ([1]; pH 1.3, 37° C., 30 min, free meloxicam 130 mg, composition 1300 mg (table 7)): 0.74 µg/mL | Dissolved meloxicam in solution ([1]; pH 1.3, 37° C., 30 min, free meloxicam 130 mg, composition 1500 mg (tables 5, 6)): 0.74 µg/mL | Dissolved meloxicam in solution ([1]; pH 1.3, 37° C., 45 min (tables 4, 11, 13)): 0.7 µg/mL and 0.59 µg/mL | Dissolved meloxicam in solution ([1]; pH 1.3, 37° C., 45 min, free meloxicam 130 mg, composition 1300 mg (table 7)): 0.73 µg/mL | Dissolved meloxicam in solution ([1]; pH 1.3, 37° C., 45 min, free meloxicam 130 mg, composition 1500 mg (tables 5, 6)): 0.73 µg/mL | Dissolved meloxicam in solution ([1]; pH 1.3, 37° C., 60 min (tables 4, 11, 13)): 0.6 µg/mL and 0.65 µg/mL | Dissolved meloxicam in solution ([1]; pH 1.3, 37° C., 60 min, free meloxicam 130 mg, composition 1300 mg (table 7)): 0.67 µg/mL | Dissolved meloxicam in solution ([1]; pH 1.3, 37° C., 60 min, free meloxicam 130 mg, composition 1500 mg (tables 5, 6)): 0.67 µg/mL | Dissolved meloxicam in solution ([1]; pH 7.6, 37° C., 5 min (tables 4, 11)): 38 µg/mL | Dissolved meloxicam in solution ([1]; pH 7.6, 37° C., 5 min, free meloxicam 130 mg, composition 1300 mg (table 7)): 38 µg/mL | Dissolved meloxicam in solution ([1]; pH 7.6, 37° C., 5 min, free meloxicam 130 mg, composition 1500 mg (tables 5, 6)): 38 µg/mL | Dissolved meloxicam in solution ([1]; pH 7.6, 37° C., 10 min (tables 4, 11)): 188 µg/mL and 218 µg/mL | Dissolved meloxicam in solution ([1]; pH 7.6, 37° C., 10 min, free meloxicam 130 mg, composition 1300 mg (table 7)): 218 µg/mL | Dissolved meloxicam in solution ([1]; pH 7.6, 37° C., 10 min, free meloxicam 130 mg, composition 1500 mg (tables 5, 6)): 218 µg/mL | Dissolved meloxicam in solution ([1]; pH 7.6, 37° C., 15 min (tables 4, 11)): 320 µg/mL | Dissolved meloxicam in solution ([1]; pH 7.6, 37° C., 15 min, free meloxicam 130 mg, composition 1300 mg (table 7)): 320 µg/mL | Dissolved meloxicam in solution ([1]; pH 7.6, 37° C., 15 min, free meloxicam 130 mg, composition 1500 mg (tables 5, 6)): 320 µg/mL | Dissolved meloxicam in solution ([1]; pH 7.6, 37° C., 30 min (tables 4, 11)): 390 µg/mL | Dissolved meloxicam in solution ([1]; pH 7.6, 37° C., 30 min, free meloxicam 130 mg, composition 1300 mg (table 7)): 390 µg/mL | Dissolved meloxicam in solution ([1]; pH 7.6, 37° C., 30 min, free meloxicam 130 mg, composition 1500 mg (tables 5, 6)): 390 µg/mL | Dissolved meloxicam in solution ([1]; pH 7.6, 37° C., 45 min (tables 4, 11)): 485 µg/mL | Dissolved meloxicam in solution ([1]; pH 7.6, 37° C., 45 min, free meloxicam 130 mg, composition 1300 mg (table 7)): 485 µg/mL | Dissolved meloxicam in solution ([1]; pH 7.6, 37° C., 45 min, free meloxicam 130 mg, composition 1500 mg (tables 5, 6)): 485 µg/mL | Dissolved meloxicam in solution ([1]; pH 7.6, 37° C., 60 min (tables 4, 11)): 550 µg/mL | Dissolved meloxicam in solution ([1]; pH 7.6, 37° C., 60 min, free meloxicam 130 mg, composition 1300 mg (table 7)): 550 µg/mL | Dissolved meloxicam in solution ([1]; pH 7.6, 37° C., 60 min, free meloxicam 130 mg, composition 1500 mg (tables 5, 6)): 550 µg/mL | meloxicam (dissolved) [2]: 0.8 µg/mL
